Results published in patent publication US9255101B2 (BIOPROJECT, priority 2012, dated 2016).
Where a name gives a salt, the structure may show the parent alone.

target: human H4 receptor (Homo sapiens, UniProt Q9H3N8); test: biochemical
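Also: radioligand displacement of a [3H]-labelled ligand from membranes of CHO cells stably expressing human H4 receptor, bound radioactivity counted on filters by liquid scintillation.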

human H4 receptor, sequence (Q9H3N8 whole entry): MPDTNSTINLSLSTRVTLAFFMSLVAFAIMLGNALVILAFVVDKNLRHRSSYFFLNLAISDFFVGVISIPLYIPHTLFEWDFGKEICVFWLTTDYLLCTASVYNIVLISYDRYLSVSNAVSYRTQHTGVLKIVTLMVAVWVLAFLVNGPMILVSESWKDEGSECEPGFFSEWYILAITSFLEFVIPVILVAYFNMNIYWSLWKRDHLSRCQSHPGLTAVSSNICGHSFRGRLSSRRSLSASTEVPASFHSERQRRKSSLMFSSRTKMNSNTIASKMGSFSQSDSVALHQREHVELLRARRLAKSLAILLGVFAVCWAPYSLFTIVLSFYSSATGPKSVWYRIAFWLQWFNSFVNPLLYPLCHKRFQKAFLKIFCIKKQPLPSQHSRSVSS

Compound	Ki [nM]
CN1CCC(OC2c3ccccc3CCn3cc(-c4ccc(CN5C(=O)OC(C)(C)C5=O)cc4)nc32)CC1 (stereo not shown) [Example 198, 5,5-dimethyl-3-{4-[4-(1-methylpiperidin-4-yloxy)-9,10-dihydro-4H-3,10a-diaza-benzo[f]azulen-2-yl]benzyl}-oxazolidine-2,4-dione]	< 300
Cc1c(-c2ccncc2)nc2n1CCc1ccccc1C2OC1CCN(C)CC1 (stereo not shown) [Example 250, 1-methyl-4-(1-methylpiperidin-4-yloxy)-2-pyridin-4-yl-9,10-dihydro-4H-3,10a-diaza-benzo[f]azulene]	< 1000
CN1CCC(OC2c3ccccc3CCn3cc(-c4ccc(C(=O)N5CCC(=O)CC5)cc4)nc32)CC1 (stereo not shown) [Example 215, 1-{4-[4-(1-methylpiperidin-4-yloxy)-9,10-dihydro-4H-3,10a-diaza-benzo[f]azulen-2-yl]-benzoyl}-piperidin-4-one]	< 300
CN1CCC(OC2c3ccccc3CCn3cc(-c4cccnc4)nc32)CC1 (stereo not shown) [Example 45, 4-(1-methylpiperidin-4-yloxy)-2-pyridin-3-yl-9,10-dihydro-4H-3,10a-diaza-benzo[f]azulene oxalate]	< 1000
CN1CCC(OC2c3ccccc3CCn3cc(-c4ccc(Cl)cc4)nc32)CC1 (stereo not shown) [Example 52, 2-(4-chloro-phenyl)-4-(1-methylpiperidin-4-yloxy)-9,10-dihydro-4H-3,10a-diaza-benzo[f]azulene oxalate]	< 30
CN1CCC(OC2c3ccccc3CCn3cc(-c4ccc(CN5CCOC5=O)cc4)nc32)CC1 (stereo not shown) [Example 181, 3-{4-[4-(1-methylpiperidin-4-yloxy)-9,10-dihydro-4H-3,10a-diaza-benzo[f]azulen-2-yl]-benzyl}-oxazolidin-2-one]	< 300
Cc1c(-c2ccc(N)cc2)nc2n1CCc1ccccc1C2OC1CCN(C)CC1 (stereo not shown) [Example 173, 4-[1-methyl-4-(1-methylpiperidin-4-yloxy)-9,10-dihydro-4H-3,10a-diaza-benzo[f]azulen-2-yl]-phenylamine]	< 300
CN1CCC(OC2c3ccccc3CCn3cc(-c4ccc(CCNC(=O)OC(C)(C)C)cc4)nc32)CC1 (stereo not shown) [Example 196]	< 300
Cc1c(-c2ccc(NC(=O)OC3CCCC3)cc2)nc2n1CCc1ccccc1C2OC1CCN(C)CC1 (stereo not shown) [Example 172, {4-[1-methyl-4-(1-methylpiperidin-4-yloxy)-9,10-dihydro-4H-3,10a-diaza-benzo[f]azulen-2-yl]-phenyl}-carbamic acid cyclopentyl ester]	< 30
CN1CCC(OC2c3ccccc3CCn3cc(C=CCOCc4ccccc4)nc32)CC1 (stereo not shown) [Example 124, 2-(3-benzyloxypropenyl)-4-(1-methylpiperidin-4-yloxy)-9,10-dihydro-4H-3,10a-diaza-benzo[f]azulene oxalate]	< 300
CN1CCC(OC2c3ccccc3CCn3cc(CCC4CCCCC4)nc32)CC1 (stereo not shown) [Example 95, 2-(2-cyclohexylethyl)-4-(1-methylpiperidin-4-yloxy)-9,10-dihydro-4H-3,10a-diaza-benzo[f]azulene oxalate]	< 30
Cc1c(-c2ccc(NC(=S)NC3CC3)cc2)nc2n1CCc1ccccc1C2OC1CCN(C)CC1 (stereo not shown) [Example 208, 1-cyclopropyl-3-{4-[1-methyl-4-(1-methylpiperidin-4-yloxy)-9,10-dihydro-4H-3,10a-diaza-benzo[f]azulen-2-yl]-phenyl}-thiourea]	< 300
CN1CCC(OC2c3ccccc3CCn3cc(SC4CCN(C(=O)OC(C)(C)C)CC4)nc32)CC1 (stereo not shown) [Example 114, 4-[4-(1-methylpiperidin-4-yloxy)-9,10-dihydro-4H-3,10a-diaza-benzo[f]azulen-2-ylsulfanyl]-piperidine-1-carboxylic acid tert-butyl ester]	< 300
CN1CCC(OC2c3ccccc3CCn3cc(-c4cccn4C)nc32)CC1 (stereo not shown) [Example 83, 4-(1-methylpiperidin-4-yloxy)-2-(1-methyl-1H-pyrrol-2-yl)-9,10-dihydro-4H-3,10a-diaza-benzo[f]azulene]	< 1000
CN1CCC(OC2c3ccccc3CCn3cc(C=CC(=O)OC(C)(C)C)nc32)CC1 (stereo not shown) [Example 53, 3-[4-(1-methylpiperidin-4-yloxy)-9,10-dihydro-4H-3,10a-diaza-benzo[f]azulen-2-yl]-acrylic acid tert-butyl ester oxalate]	< 1000
CN1CCC(OC2c3ccccc3CCn3cc(SCCNC(=O)OC(C)(C)C)nc32)CC1 (stereo not shown) [Example 84, {2-[4-(1-methylpiperidin-4-yloxy)-9,10-dihydro-4H-3,10a-diaza-benzo[f]azulen-2-ylsulfanyl]-ethyl}-carbamic acid tert-butyl ester oxalate]	< 300
C=C(C)Cc1nc2n(c1C(N)=O)CCc1ccccc1C2OC1CCN(C)CC1 (stereo not shown) [Example 266, 2-(2-methylallyl)-4-(1-methylpiperidin-4-yloxy)-9,10-dihydro-4H-3,10a-diaza-benzo[f]azulene-1-carboxylic acid amide]	< 300
CN1CCC(OC2c3ccccc3CCn3c2nc(-c2ccccc2)c3C#N)CC1 (stereo not shown) [Example 235, 4-(1-methylpiperidin-4-yloxy)-2-phenyl-9,10-dihydro-4H-3,10a-diaza-benzo[f]azulene-1-carbonitrile]	< 30
Cc1cc(C(F)(F)F)ccc1-c1cn2c(n1)C(OC1CCN(C)CC1)c1ccccc1CC2 (stereo not shown) [Example 55, 4-(1-methylpiperidin-4-yloxy)-2-(2-methyl-4-trifluoromethyl-phenyl)-9,10-dihydro-4H-3,10a-diaza-benzo[f]azulene]	< 300
C=CCOc1ccc(-c2cn3c(n2)C(OC2CCN(C)CC2)c2ccccc2CC3)cc1 (stereo not shown) [Example 183, 2-(4-allyloxyphenyl)-4-(1-methylpiperidin-4-yloxy)-9,10-dihydro-4H-3,10a-diaza-benzo[f]azulene]	< 30
CN1CCC(OC2c3ccccc3CCn3cc(-c4ccc(CNC(=O)OC(C)(C)C)cc4)nc32)CC1 (stereo not shown) [Example 115, {4-[4-(1-methylpiperidin-4-yloxy)-9,10-dihydro-4H-3,10a-diaza-benzo[f]azulen-2-yl]-benzyl}-carbamic acid tert-butyl ester]	< 300
CCOC(=O)c1c(C)nc2n1CCc1ccccc1C2OC1CCN(C)CC1 (stereo not shown) [Example 116, 2-methyl-4-(1-methylpiperidin-4-yloxy)-9,10-dihydro-4H-3,10a-diazabenzo[f]azulene-1-carboxylic acid ethyl ester]	< 300
CN(C)CCCOC1c2ccccc2CCn2c1nc(I)c2I (stereo not shown) [Example 270, [3-(1,2-diiodo-9,10-dihydro-4H-3,10a-diaza-benzo[f]azulen-4-yloxy)-propyl]-dimethyl-amine]	< 1000
CN1CCC(OC2c3ccccc3CCn3c2nc(-c2ccc(NC(=O)OC(C)(C)C)cc2)c3Cl)CC1 (stereo not shown) [Example 141, {4-[1-chloro-4-(1-methylpiperidin-4-yloxy)-9,10-dihydro-4H-3,10a-diaza-benzo[f]azulen-2-yl]-phenyl}-carbamic acid tert-butyl ester]	< 30
CN1CCC(OC2c3ccccc3CCn3cc(-c4ccc(CN(C)C(=O)OC(C)(C)C)cc4)nc32)CC1 (stereo not shown) [Example 182, methyl-{4-[4-(1-methylpiperidin-4-yloxy)-9,10-dihydro-4H-3,10a-diaza-benzo[f]azulen-2-yl]benzyl}-carbamic acid tert-butyl ester]	< 300
